Laboratory results published in paper PMC11372839, “Unraveling the Potential of Vitamin B3-Derived Salts with a Salicylate Anion as Dermal Active Agents for Acne Treatment” (Molecular Pharmaceutics, 2024).
Converted amounts (≈) assume the structure as drawn. “And” between values parts separate entries of the source, which are not always exact repeats. Equal entries are not always repeated. Where two headings read alike, the source gives them in different places.

Legend:
Solubility in PBS = details: for Solubility in PBS, Class: Pharmacopeia solubility class, PBS pH 7.4, 25 °C
Description: The solubility in PBS solution was determined by placing 1 g (±0.0001) of tested compound in a round-bottom flask and adding specific parts of the PBS solution in portions until full dissolution. The samples were vigorously stirred for at least 5 min before the addition of the next portion of PBS, and the systems were thermostated at 25 °C. Three repetitions of the measurement were performed for each of the compounds.
Most studies on the solubility of novel APIs are carried out with pure water, aqueous PBS solutions were much more preferred due to their higher similarity to intra- and intercellular media in epidermis, while envisaging their use in transdermal delivery and skin care applications.[60] […] The collected data are presented in Figure 8 (as well as in Table S6 in the Supporting Information).

[1] = Contact angle of aqueous solutions, sessile drop method on paraffin; format: physicochemical; details: aqueous solution, 25 °C
Description: The contact angle (CA) measurements were carried out using a DSA100S analyzer (Krüss, Germany, accuracy ±0.1°), at 25 °C. The determination of the contact angle was based on the sessile drop method, i.e., drops of the analyzed solution were deposited on a solid surface (paraffin). The images of the drops were taken with a CCD camera, digitized, and evaluated using Young–Laplace fitting. The CA was determined as the slope of the tangent line at the contact point between the 3 phases (solution, paraffin surface, and air).
In the case of seborrheic skin, which occurs among many people affected by acne, the epidermis is covered by a hydrophobic lipid layer, which impedes the penetration of active substances, especially those that are well soluble in water. In addition, ensuring proper drug absorption through the skin can also reduce the risk of side effects and increase the effectiveness of therapy.[72] The addition of surfactants, which improve the wettability of hydrophobic surfaces, can be a solution to this problem.[73],[74] […] Wettability analyses of aqueous solutions of the new APIs were carried out on paraffin, whose hydrophobicity is similar to that of the human skin.[75] Experiments were performed at concentrations corresponding to common NA and SAL contents in commercial formulations (0.25–1.00%).[67],[76],[77] Due to low solubilities of 5–7, tests for these salts were performed at concentrations of 0.25, 0.03, and 0.01%, respectively (please see Figure S43 in the Supporting Information).

Cutibacterium acnes = test: MIC and MBC determination, microdilution method; format: cell-based; details: Cutibacterium acnes; for MIC: 48 h, read-out: MIC, C. acnes; for MBC: read-out: MBC, C. acnes
Description: (§1) The antimicrobial activities of the compounds were tested against clinical strains of an aerobic Gram-negative bacterium—Pseudomonas aeruginosa (P. aeruginosa), facultative anaerobic Gram-positive bacteria—Staphylococcus aureus (S. aureus) and Staphylococcus epidermidis (S. epidermidis), anaerobic Gram-positive bacterium—Cutibacterium acnes (C. acnes), and yeast-like fungus—Candida albicans (C. albicans).
(§2) Aerobic and facultative anaerobic bacteria cultures were grown in Brain Heart Infusion broth (BHI, bioMerieux, France) at 35 °C ± 1 °C for 18 h, C. acnes cultures were grown in thioglycolate broth with resazurin (TGB, bioMerieux, France) at 35 ± 1 °C for 48 h, and yeast cultures were grown in Sabouraud dextrose broth (SDB, Merck, Germany) at 35 ± 1 °C for 24 h. After incubation, each culture was diluted in a suitable liquid medium: P. aeruginosa, S. aureus, and S. epidermidis—Mueller–Hinton broth (MHB; Oxoid, UK); C. acnes—TGB; and C. albicans—SDB, to obtain a final suspension containing about 10^6 CFU/mL.
(§3) The microdilution method was employed to determine the compounds’ MIC (Minimal Inhibitory Concentration) and MBC/MFC (Minimal Bactericidal Concentration/Minimal Fungicidal Concentration) against the tested bacterial and fungal strains.
(§4) The compounds were serially diluted (2-fold) in the respective media (P. aeruginosa, S. aureus, and S. epidermidis—MHB, C. acnes—TGB, and C. albicans—SDB in 96-well plates), and the microbial suspensions were added. The compounds were tested in the final concentration range of 4 096 to 0.125 μg/mL, and the final microbial inoculum was approximately 5 ×10^5 CFU/mL. The tests were incubated at 35 °C ± 1 °C for 18 h (P. aeruginosa, S. aureus, and S. epidermidis) or 24 h (C. albicans) or 48 h (C. acnes). C. acnes was incubated in an anaerobic atmosphere using a GENbag anaer (bioMerieux, France). Media (without the strains) added to the different concentrations of tested compounds and media inoculated with microbial suspension were used as a negative control and growth control, respectively.
(§5) The MIC was defined as the lowest concentration at which visible growth was inhibited. MBC and MFC concentrations were determined as an extension of the MIC test. […] The plates were incubated at 35 ± 1 °C for 18–72 h. C. acnes was incubated in an anaerobic atmosphere. The MBC/MFC was defined as the lowest concentration at which no growth was observed. All tests were performed in duplicate.

Pseudomonas aeruginosa = test: MIC and MBC determination, microdilution method; format: cell-based; details: for MIC: 18 h, read-out: MIC, P. aeruginosa
Description: as §1, §2, §3, §4, §5

Candida albicans = test: MIC and MFC determination, microdilution method; format: cell-based; details: clinical strain, tested 4 096 to 0.125 μg/mL, b = out of range
Description: as §1, §2, §3, §4, §5

[2] = clinical strain, anaerobic, tested 4 096 to 0.125 μg/mL, b = out of range
[3] = volume of PBS (pH 7.4) to dissolve 1 g, 25 °C

| SMILES | Solubility in PBS, PBS [ml] (Solubility in PBS; pH 7.4) | Contact angle ([1]; concentration 0.25%) | MIC (Cutibacterium acnes; [2]) | MBC (Cutibacterium acnes; [2]) | MIC (Pseudomonas aeruginosa; clinical strain, tested 4 096 to 0.125 μg/mL, b = out of range) | MBC (Pseudomonas aeruginosa; clinical strain, tested 4 096 to 0.125 μg/mL, b = out of range, read-out: MBC, P. aeruginosa) | MIC (Candida albicans; 24 h, read-out: MIC, C. albicans) | MFC (Candida albicans; read-out: MFC, C. albicans) | Solubility in PBS, Class (Solubility in PBS) | Solubility in PBS, PBS [ml] (Solubility in PBS; [3]) | Contact angle ([1]; concentration 0.50%) | Contact angle ([1]; concentration 1.00%) | MIC (Cutibacterium acnes) | MBC (Cutibacterium acnes) | MIC (Pseudomonas aeruginosa) |
| --- | --- | --- | --- | --- | --- | --- | --- | --- | --- | --- | --- | --- | --- | --- | --- |
| O=C(O)c1ccccc1O [SAL, salicylic acid, reference compound] | 100 to 1000 mL | 104.9 ° | 1020 µg/mL (≈ 7.41 mM) | 4100 µg/mL (≈ 29.7 mM) | 2050 µg/mL (≈ 14.8 mM) | 4100 µg/mL (≈ 29.7 mM) | 2050 µg/mL (≈ 14.8 mM) | 2050 µg/mL (≈ 14.8 mM) |  |  |  |  |  |  |  |
| CCCCCC[n+]1cccc(C(N)=O)c1.O=C([O-])c1ccccc1O [compound 3] |  | 107.0 ° |  |  |  |  |  |  | Very Soluble (<1) | < 1 mL | 103.4 ° | 98.51 ° |  |  |  |
| CCCCCCCC[n+]1cccc(C(N)=O)c1.O=C([O-])c1ccccc1O [compound 4] |  | 94.1 ° and 94 ° |  |  |  |  |  |  | Soluble (10-30) | 10 to 30 mL | 79.0 ° | 61.2 ° and 61 ° |  |  |  |
| CCCCCCCCCC[n+]1cccc(C(N)=O)c1.O=C([O-])c1ccccc1O [compound 5] |  | 50.7 ° |  |  |  |  |  |  | Slightly Soluble (100-1000) | 100 to 1000 mL |  |  | 1020 µg/mL | 1020 µg/mL | 1020 µg/mL |
